In the supplement of paper PMC4977894:
Counter-ions that a name gives are not always drawn. ± gives the standard deviation of the averaged measurements.

What was measured:
[1] = tested on: Homo sapiens (human subject panel, olfactory perception); assay: perceived odor pleasantness rating (rating 0-100); higher = more pleasant
How it was run: (§1)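 Stimuli were molecules diluted in paraffin oil at high and low concentrations, with 1 mL of each sniffed in randomized order across ten visits of 100 stimuli. Participants were 55 healthy humans aged 18–50, excluding the six lowest performers. Subjects who smelled a stimulus moved a computerized slider away from its starting point of 50, and positions were rescaled to 0–100. Familiarity, intensity and pleasantness are each reported as an average over subjects.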

[2] = tested on: Homo sapiens (human subject panel, olfactory perception); assay: perceived odor familiarity rating (rating 0-100); higher = more familiar
How it was run: as §1

[3] = tested on: Homo sapiens (human subject panel, olfactory perception); assay: perceived odor intensity rating (rating 0-100); higher = stronger perceived smell
How it was run: as §1

[4] = odor dilution in paraffin oil: 1/1,000
[5] = odor dilution in paraffin oil: 1/100,000
[6] = odor dilution in paraffin oil: 1/10
[7] = odor dilution in paraffin oil: 1/10,000,000

Compound	perceived odor pleasantness rating [1, 4]	perceived odor pleasantness rating [1, 5]	perceived odor familiarity rating [2, 4]	perceived odor familiarity rating [2, 5]	perceived odor intensity rating [3, 4]	perceived odor intensity rating [3, 5]	perceived odor pleasantness rating [1, 6]	perceived odor familiarity rating [2, 6]	perceived odor intensity rating [3, 6]	perceived odor pleasantness rating [1, 7]	perceived odor familiarity rating [2, 7]	perceived odor intensity rating [3, 7]
CC(=O)c1ccccn1 [2-acetyl pyridine]	49.7 ± 28	53.6 ± 27	66.9 ± 28	67.8 ± 29	79.2 ± 20	74.3 ± 22						
O=C(OCCc1ccccc1)c1ccccc1O [Phenethyl salicylate]	49.2 ± 22		33.8 ± 29		17.8 ± 25		58.9 ± 22	38.8 ± 29	37.3 ± 31			
C=CCOC(=O)CCC1CCCCC1 [Allyl cyclohexanepropionate]	60.9 ± 23	54.7 ± 24	58.7 ± 29	32.5 ± 27	57.9 ± 25	30.6 ± 30						
CC=Cc1ccc(OC(C)=O)c(OC)c1 [isoeugenol acetate]	66.8 ± 25		58.8 ± 28		46.1 ± 28		58.3 ± 26	57.1 ± 31	57.6 ± 30			
N[C@@H](CCC(=O)O)C(=O)O [L-Glutamic acid]	47.5 ± 26		30.3 ± 31		29.8 ± 27		37.1 ± 23	34.7 ± 30	52.7 ± 31			
Cc1cccc(C)n1 [2,6-Dimethylpyridine]	29.8 ± 24	35.3 ± 23	47.3 ± 32	42.5 ± 31	78.1 ± 20	54.1 ± 32						
c1cscn1 [Thiazole]	43.2 ± 24	45.5 ± 21	41.3 ± 29	27.2 ± 25	25.1 ± 27	18.8 ± 22						
C/C=C\c1ccc(O)c(OC)c1 [Isoeugenol]	68.4 ± 26	66.9 ± 24	71.4 ± 27	60 ± 29	81.6 ± 15	64.5 ± 23						
CC/C=C\CCOC(=O)C(C)O (stereo not drawn) [cis-3-Hexenyl lactate]	51.7 ± 26	46.7 ± 22	57.1 ± 31	38.6 ± 30	67.2 ± 29	30.3 ± 28						
COc1ccc(C=O)cc1 [p-Anisaldehyde]	60 ± 25	69 ± 21	54.5 ± 30	49.2 ± 32	71.2 ± 22	45.9 ± 31						
CC(C)CCN [Isoamylamine]		40.2 ± 25		37.5 ± 29		37.5 ± 30				46.1 ± 22	32.1 ± 27	15.1 ± 27
CC(C)CCC(=O)O [4-Methylvaleric acid]		20.8 ± 22		41.8 ± 30		58.6 ± 30				43.3 ± 20	32.5 ± 25	30.9 ± 30
CCCCCCCCCCCCOC(C)=O [Lauryl acetate]	43.5 ± 24	49.5 ± 26	33.3 ± 27	36.6 ± 27	33 ± 30	23 ± 27						
CC(=O)OCC(C)C [isobutyl acetate]	56 ± 28	50 ± 22	72.1 ± 24	39.2 ± 27	75.9 ± 22	33.5 ± 30						
CCCCCCC(C)=O [2-octanone]	52.5 ± 25	52.2 ± 16	51.9 ± 26	36.6 ± 25	66.8 ± 26	20 ± 26						
CC1=CCC(C(C)(C)OC=O)CC1 (stereo not given) [Terpinyl formate]	37.8 ± 26	46.9 ± 30	45.6 ± 31	28.1 ± 26	42.2 ± 30	14.6 ± 20						
OCC1CCCO1 (stereo not given) [Tetrahydrofurfuryl alcohol]	42.7 ± 25	45.1 ± 22	30.3 ± 29	40.3 ± 28	29.6 ± 27	18.4 ± 23						
CCc1ccccc1O [2-ethylphenol]	29.2 ± 27	33.2 ± 24	64.4 ± 28	51.6 ± 33	83.3 ± 18	67.7 ± 27						

Compound	perceived odor pleasantness rating [1, 4]	perceived odor pleasantness rating [1, 5]	perceived odor familiarity rating [2, 4]	perceived odor familiarity rating [2, 5]	perceived odor intensity rating [3, 4]	perceived odor intensity rating [3, 5]	perceived odor pleasantness rating [1, 6]	perceived odor familiarity rating [2, 6]	perceived odor intensity rating [3, 6]	perceived odor pleasantness rating [1, 7]	perceived odor familiarity rating [2, 7]	perceived odor intensity rating [3, 7]
COC(=O)CSC [Methyl (methylthio)acetate]	17.9 ± 24	37.7 ± 27	45.8 ± 30	38.9 ± 32	81.7 ± 16	37.8 ± 31						
C=Cc1scnc1C [4-Methyl-5-vinylthiazole]	21.3 ± 22	38.6 ± 27	41.4 ± 34	40.3 ± 33	80.5 ± 21	43.5 ± 32						
CCCCCO [pentanol]	23.9 ± 23	41.9 ± 26	46 ± 30	36.6 ± 28	68.4 ± 28	31.2 ± 32						
Cc1ncc(C[n+]2csc(CCO)c2C)c(N)n1 [Thiamine hydrochloride]	36.4 ± 22		44.7 ± 28		61.6 ± 25		35.5 ± 25	51.5 ± 29	67.1 ± 23			
OCCCc1ccccc1 [3-Phenyl-1-propanol]	48.6 ± 33	45.4 ± 25	49.5 ± 34	36.7 ± 27	63.3 ± 30	34.5 ± 32						
CCCCOC(=O)Cc1ccccc1 [Butyl phenylacetate]	47.2 ± 28	45.9 ± 22	51.6 ± 30	41.3 ± 32	53.1 ± 31	24.8 ± 25						
CCCCCCC#CC(=O)OC [Methyl 2-nonynoate]	65 ± 27	58.5 ± 29	61.9 ± 33	55.3 ± 28	71.1 ± 21	55.3 ± 30						
CCC(O)c1ccccc1 (stereo not given) [1-Phenyl-1-propanol]	54 ± 20	48.9 ± 19	39.2 ± 31	25.5 ± 26	36.6 ± 32	15.2 ± 22						
CCC(=O)OC/C=C/c1ccccc1 [trans-Cinnamyl propionate]	50.8 ± 23	46.9 ± 24	45.5 ± 29	36.7 ± 28	46.3 ± 30	23.7 ± 29						
COc1ccccc1 [anisole]	29.3 ± 26	50.2 ± 26	45 ± 34	35.4 ± 33	75.3 ± 24	30.9 ± 30						
COC1=C(C)OC(C)C1=O (stereo not given) [2,5-Dimethyl-4-methoxy-3(2H)-furanone]	26 ± 19	28.2 ± 23	45.4 ± 33	44.1 ± 28	74.8 ± 24	56.3 ± 31						
CCC(=O)OCCc1ccccc1 [Phenethyl propionate]	54.6 ± 27	52.6 ± 25	54.6 ± 32	51.1 ± 30	49.9 ± 34	26.4 ± 27						
CCCCOC(=O)[C@H](C)O [Butyl (S)-(-)-lactate]	50.2 ± 28	48.8 ± 23	50.4 ± 32	39.5 ± 25	55.5 ± 29	33.6 ± 34						
C=CC(O)CCCCC (stereo not given) [1-Octen-3-ol]	40.3 ± 27	42.2 ± 20	45.4 ± 32	39.4 ± 27	66.5 ± 26	37.7 ± 30						
CC1(C)C(=O)[C@@]2(C)CC[C@H]1C2 [l-fenchone]	44.6 ± 28	49.3 ± 26	58.3 ± 31	33.1 ± 32	64.5 ± 31	9.45 ± 15						
O=C1CCCCCCCCCCCCCCO1 [Omega-Pentadecalactone]	54.1 ± 23		32 ± 24		23 ± 29		73.5 ± 19	58.9 ± 28	57 ± 27			
CCCCCCCCCCCO [1-undecanol]	41.9 ± 28		37.1 ± 30		42.8 ± 32		41 ± 28	51 ± 32	74.9 ± 24			
